Legend:
[1] = Measurement of the imperceptible water loss (IWL) with an evaporimeter (Servomed); conditions: compound at 1% in dichloromethane/methanol (2/1 v/v), applied on delipidated stratum corneum; measured 20 hours after application
Protocol: Measurement of the imperceptible water loss (IWL)
This measurement was carried out using an evaporimeter (Servomed) which quantitatively determines the evaporation of water, that is transportation of water by diffusion, from a stratum corneum sample which seals a cylindrical capsule containing water, the whole assembly being placed in a chamber with controlled relative temperature and controlled relative humidity.
Sensors made it possible to measure the partial vapour pressure of water at two points situated at different distances from the sample.
The partial vapour pressure of water gradient between the two points was thus determined and therefore the degree of evaporation in accordance with Fick's law.
This measurement is carried out for:
The compounds were prepared in the proportion of 1% in a dichloromethane/methanol (2/1 v/v) mixture and then applied on pieces of delipidated stratum comeum.
The imperceptible water loss (IWL) for each compound was measured 20 hours after application.

melting point [°C]	SMILES	I.W.L. (imperceptible water loss) [1]
116.8	CCCCCCCCCCCCNC(=O)N(C)C[C@H](O)[C@@H](O)[C@H](O)[C@H](O)CO [Example 1, N-dodecylaminocarbonyl-N-methyl-D-glucamine]	−21 +/− 2
	CCCCCCCCCCCCOC(=O)N(C)C[C@H](O)[C@@H](O)[C@H](O)[C@H](O)CO [Reference B, N-dodecyloxycarbonyl-N-methyl-D-lucamine]	−9 +/− 2
	CCCCCCCCCCCC(=O)N(C)C[C@H](O)[C@@H](O)[C@H](O)[C@H](O)CO [Reference A, N-dodecanoyl-N-methyl-D-glucamine]	−11 +/− 3
111.4	CCCCCCCCNC(=O)N(C)C[C@H](O)[C@@H](O)[C@H](O)[C@H](O)CO [Example 8, N-octylaminocarbonyl-N-methyl-D-glucamine]	
